Measured values published in US10294202B2, “Pyrrolidinones as herbicides” (FMC Corporation, priority 2013, dated 2019).

Columns and labels:
sedge, umbrella = experiment: Test B flooded paddy test; type: in vivo, Cyperus difformis; conditions: 250 g ai/ha, Flood; scale of 0 to 100 where 0 is no effect and 100 is complete control
How it was run: (§1)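 Visual ratings from 0, meaning no effect, up to 100, meaning complete control, were made by comparison with untreated controls 13 to 15 days after treatment. Test compounds went straight into floodwater standing 3 cm over the soil of pots holding 2-leaf seedlings.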

barnyardgrass [1] = experiment: Test B flooded paddy test; type: in vivo, Echinochloa crus-galli; conditions: 250 g ai/ha, Flood; scale of 0 to 100 where 0 is no effect and 100 is complete control
How it was run: as §1

velvetleaf = experiment: Test C pre-/postemergence herbicide test; type: in vivo, Abutilon theophrasti
How it was run: (§2)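 Test compounds, formulated in a surfactant-containing non-phytotoxic solvent blend, are applied to seeded loam/sand soil (preemergence) and to young plants at the 1- to 4-leaf stage in peat-based medium (postemergence). Plants stay 13 to 15 days under greenhouse conditions, then are scored visually relative to controls, 0 = no effect, 100 = complete control.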

oat, wild = experiment: Test C pre-/postemergence herbicide test; type: in vivo, Avena fatua
How it was run: as §2

lambsquarters = experiment: Test C pre-/postemergence herbicide test; type: in vivo, Chenopodium album
How it was run: as §2

blackgrass = experiment: Test C pre-/postemergence herbicide test; type: in vivo, Alopecurus myosuroides
How it was run: as §2

barnyardgrass [2] = experiment: Test A pre-/postemergence herbicide test; type: in vivo, Echinochloa crus-galli
How it was run: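 Planted in loam–sand blend; treated the same day preemergence by directed soil spray, while separately grown plants at one- to two-leaf stage got postemergence spray. Compared visually with untreated controls after approximately 10 days; 100 means complete control.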

wheat (winter wheat) = experiment: Test C pre-/postemergence herbicide test; type: in vivo, Triticum aestivum
How it was run: as §2

corn = experiment: Test C pre-/postemergence herbicide test; type: in vivo, Zea mays
How it was run: as §2

crabgrass, large = experiment: Test C pre-/postemergence herbicide test; type: in vivo, Digitaria sanguinalis
How it was run: as §2

soybean = experiment: Test C pre-/postemergence herbicide test; type: in vivo, Glycine max
How it was run: as §2

[3] = Postemergence, 31 g ai/ha, scale 0 (no effect) to 100 (complete control)
[4] = Postemergence, 62 g ai/ha, scale 0 to 100 (0 no effect, 100 complete control)
[5] = Postemergence, 125 g ai/ha, scale 0 to 100 (0 no effect, 100 complete control)
[6] = Preemergence, 62 g ai/ha, scale 0 to 100
[7] = Preemergence, 125 g ai/ha, scale 0 to 100 (0 no effect, 100 complete control)
[8] = Preemergence, 31 g ai/ha, scale 0 to 100 (0 no effect, 100 complete control)

SMILES: O=C1NCC(c2ccc(F)c(Cl)c2)C1C(=O)Nc1ccccc1F (stereo not drawn) [Compound 60]
- Plant response rating, Sedge, Umbrella (sedge, umbrella): 60
- Plant response rating, Barnyardgrass (barnyardgrass [1]): 30
- Plant response rating, Velvetleaf (velvetleaf; [3]): 0
- Plant response rating, Velvetleaf (velvetleaf; [4]): 0
- Plant response rating, Velvetleaf (velvetleaf; [5]): 5
- Plant response rating, Velvetleaf (velvetleaf; [6]): 0
- Plant response rating, Velvetleaf (velvetleaf; [7]): 0
- Plant response rating, Oat, Wild (oat, wild; [3]): 0
- Plant response rating, Oat, Wild (oat, wild; [4]): 0
- Plant response rating, Oat, Wild (oat, wild; [5]): 0
- Plant response rating, Oat, Wild (oat, wild; [6]): 0
- Plant response rating, Oat, Wild (oat, wild; [7]): 5
- Plant response rating, Lambsquarters (lambsquarters; [3]): 5
- Plant response rating, Lambsquarters (lambsquarters; [4]): 20
- Plant response rating, Lambsquarters (lambsquarters; [5]): 20
- Plant response rating, Lambsquarters (lambsquarters; [7]): 10
- Plant response rating, Blackgrass (blackgrass; [3]): 0
- Plant response rating, Blackgrass (blackgrass; [4]): 0
- Plant response rating, Blackgrass (blackgrass; [5]): 0
- Plant response rating, Blackgrass (blackgrass; [6]): 10
- Plant response rating, Blackgrass (blackgrass; [7]): 40
- Blackgrass plant response rating (blackgrass; [8]): 0
- Plant response rating, Barnyardgrass (barnyardgrass [2]; Postemergence, 125 g ai/ha, 0 to 100 scale, 0 no effect, 100 complete control): 80
- Plant response rating, Barnyardgrass (barnyardgrass [2]; Postemergence, 500 g ai/ha, 0 to 100 scale (0 no effect, 100 complete control)): 90
- Barnyardgrass plant response rating (barnyardgrass [2]; Preemergence, 125 g ai/ha, visual rating on 0 to 100 scale (0 no effect, 100 complete control)): 80
- Plant response rating, Barnyardgrass (barnyardgrass [2]; preemergence, 500 g ai/ha, 0 to 100 scale (0 no effect, 100 complete control)): 90
- Plant response rating, Wheat (wheat (winter wheat); [3]): 0
- Plant response rating, Wheat (wheat (winter wheat); [4]): 0
- Plant response rating, Wheat (wheat (winter wheat); [5]): 5
- Plant response rating, Wheat (wheat (winter wheat); [6]): 0
- Plant response rating, Wheat (wheat (winter wheat); [7]): 0
- Plant response rating, Corn (corn; [3]): 0
- Plant response rating, Corn (corn; [4]): 0
- Plant response rating, Corn (corn; [5]): 0
- Plant response rating, Corn (corn; [6]): 10
- Plant response rating, Corn (corn; [7]): 20
- Corn plant response rating (corn; [8]): 0
- Plant response rating, Crabgrass, Large (crabgrass, large; [3]): 20
- Plant response rating, Crabgrass, Large (crabgrass, large; [4]): 50
- Plant response rating, Crabgrass, Large (crabgrass, large; [5]): 75
- Plant response rating, Crabgrass, Large (crabgrass, large; [6]): 95
- Plant response rating, Crabgrass, Large (crabgrass, large; [7]): 95
- Crabgrass, Large plant response rating (crabgrass, large; [8]): 85
- Plant response rating, Soybean (soybean; [3]): 0
- Plant response rating, Soybean (soybean; [4]): 0
- Plant response rating, Soybean (soybean; [5]): 5
- Plant response rating, Soybean (soybean; [6]): 25
- Plant response rating, Soybean (soybean; [7]): 25
